Measurements taken from patent US9718781B2, “Methods and compounds for treating proliferative disorders and viral infections” (University College Dublin, National University of Ireland, …, priority 2012, dated 2017).

Tests used:
TPβ = target: T1, TPβ (Homo sapiens, UniProt P21731); test: U46619-induced [Ca2+]i mobilization in HEK.TPβ cells; assay type: cell-based; conditions: 1 μM U46619; for remaining activity at 1 µM / activity class in HEK.TPβ cells: antagonist 1 μM; for remaining activity at 1 µM / remaining activity at 10 µM: % of agonist-induced response in vehicle-treated cells; for remaining activity at 1 µM: read-out: Percentage of Control, TPβ, 1 μM; for remaining activity at 10 µM: antagonist 10 μM, read-out: Percentage of Control, TPβ, 10 μM
T1 construct: expressed in transfected cells
Excerpt: (§1) An appropriate functional test for the evaluation of the agonistic and/or antagonistic potency of the compounds of the invention is the determination of calcium flux. Both TPα and TPβ are coupled to the G-protein Gαq. Therefore, stimulation of these receptors ultimately leads to a release of intracellular calcium ([Ca^2+]i) from intracellular stores. Consequently, the determination of [Ca^2+]i flux represents an appropriate functional test for the evaluation of the agonistic/antagonistic potency of compounds of the invention. Calcium can be measured using a molecule characterized by the covalent combination of a Ca^2+ chelating group and a fluorophore group. The Ca^2+ binding properties of these indicators are formed by the presence of a tetracarboxylic acid core as found for example in EGTA (Ethylene Glycol bis(2-aminoethyl)Tetraacetic Acid). Binding of Ca^2+ produces a wavelength shift in either the excitation or emission fluorescence spectra or a change in the emission intensity. Whereas the Ca^2+ binding to EGTA is pH dependent, recent dyes are designed from an EGTA derivative, BAPTA (1,2-Bis(2-Aminophenoxy)ethane-N,N,N′,N′-Tetraacetic Acid). Loading of these dyes inside cells commonly uses esterified forms (acetoxymethyl ester), which are able to cross the cell membranes and are subsequently hydrolyzed by esterases inside the cell.
(§2) Estimation of [Ca^2+]i flux is calculated from the fluorescence signal (F). For calibration, the maximal fluorescence (Fmax, Ca^2+-saturated form of the dye) as well as minimal fluorescence (Fmin, Ca^2+-free form of the dye) must be determined. These parameters are determined usually in situ after the experiment, for example by subsequent addition to the mixture of a cell-disrupting agent that releases all Ca^2+ such as Triton X100 and a potent Ca^2+-chelating agent such as EGTA. After subtraction of background fluorescence, [Ca^2+]; flux can be calculated for non-ratiometric indicators.
(§3) Intracellular [Ca^2+]; fluxes were measured using a fluorescence plate reader following a modified protocol of Kassack et al., ‘Quantitative comparison of functional screening by measuring intracellular Ca^2+ with radioligand binding at recombinant human dopamine receptors’, AAPS Pharmsci, 2002, 4(4); 102-111, in cell lines (e.g. HEK293 or other cell type) endogenously-expressing or over-expressing either TPα, TPβ or any other receptor or protein to be screened.
(§4) By way of example, HEK 293 cells which have been grown for 3-4 days in normal growth media (minimum essential media containing 10% FBS and 2 mmol/1 L-glutamine), under normal growth conditions (37° C., in humidified 5% CO2 atmosphere) are washed and harvested in KREBs-HEPES buffer (118 mM NaCl, 4.7 mM KCl, 1.2 mM MgSO4, 1.2 mM KH2PO4, 4.2 mM NaHCO3, 11.7 mM D-glucose, 1.3 mM CaCl2, 10 mM HEPES, pH 7.4). Cells are then incubated with 3 μM Fluo-4 in KREBs-HEPES buffer containing 1% Pluoronic F-127, for 1 hr at 25° C. with agitation. Then, cells are washed in KREBs-HEPES buffer containing 0.5% BSA and re-suspended at a final concentration of 3×10^5 cells/ml. Approx. 5.4×10^4 cells per well are plated in a 96-well plate and pre-incubated with test compounds for 10 m prior to measuring the fluorescence intensity at 520 nm for 25 seconds at 1 s intervals to monitor baseline using the Fluoroskan Ascent. Agonist (e.g., 1 μM U46619) is injected into separate wells by the automatic pipettor and fluorescence intensity is monitored at 520 nm for 75 seconds at 1 s intervals. Thereafter, Triton X100 and EGTA are added sequentially where Fmax refers to maximal fluorescence intensity measured after permeabilization of the cells with 2% Triton X100 and Fmin refers to fluorescence intensity measured after addition of 1 mM EGTA.
(§5) The dye Fluo-4 has its excitation peak at 480 nm, in the visible spectra, which spare cells to be damaged by UV (340-360 nm) stimulation and reduces auto-fluorescence of cells. […]

TPα = target: T2, TPα (Homo sapiens, UniProt P21731); test: U46619-induced [Ca2+]i mobilization in HEK.TPα cells; assay type: cell-based; conditions: for remaining activity at 1 µM: antagonist 1 μM, read-out: Percentage of Control, TPα, 1 μM; for remaining activity at 1 µM / remaining activity at 10 µM: % of agonist-induced response in vehicle-treated cells; for remaining activity at 10 µM: antagonist 10 μM, read-out: Percentage of Control, TPα, 10 μM
T2 construct: expressed in transfected cells
T2 sequence (P21731 1-343): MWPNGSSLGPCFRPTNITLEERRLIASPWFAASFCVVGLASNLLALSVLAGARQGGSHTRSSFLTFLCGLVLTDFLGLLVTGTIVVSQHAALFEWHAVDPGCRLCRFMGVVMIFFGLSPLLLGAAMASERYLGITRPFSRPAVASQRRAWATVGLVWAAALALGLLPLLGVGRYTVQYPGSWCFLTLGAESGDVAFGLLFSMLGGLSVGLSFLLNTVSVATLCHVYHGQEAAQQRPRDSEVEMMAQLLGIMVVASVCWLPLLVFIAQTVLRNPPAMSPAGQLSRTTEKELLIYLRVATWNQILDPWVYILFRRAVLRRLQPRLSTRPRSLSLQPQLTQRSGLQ
Excerpt: as §1, §2, §3, §4, §5

T1 sequence (P21731 1-407 isoform P21731-2): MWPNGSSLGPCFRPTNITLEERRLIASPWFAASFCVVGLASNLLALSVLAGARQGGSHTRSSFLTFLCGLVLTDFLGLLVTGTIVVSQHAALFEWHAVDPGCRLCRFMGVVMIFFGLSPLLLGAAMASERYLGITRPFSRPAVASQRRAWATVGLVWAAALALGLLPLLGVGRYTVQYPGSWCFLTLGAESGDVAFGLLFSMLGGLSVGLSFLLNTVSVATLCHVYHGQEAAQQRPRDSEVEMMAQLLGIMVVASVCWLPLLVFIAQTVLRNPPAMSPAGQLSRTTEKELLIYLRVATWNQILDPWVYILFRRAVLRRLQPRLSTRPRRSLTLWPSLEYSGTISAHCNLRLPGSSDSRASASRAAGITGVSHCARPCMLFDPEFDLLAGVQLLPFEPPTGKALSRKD

SMILES | remaining activity at 1 µM (TPβ) [%] | remaining activity at 10 µM (TPβ) [%] | remaining activity at 1 µM (TPα; 1 μM U46619) [%] | remaining activity at 10 µM (TPα; 1 μM U46619) [%] | IC50 (TPβ; HEK.TPβ cells, Table 2, read-out: IC50 data for U46619-mediated [Ca2+]i mobilization, TPβ) [µM] | IC50 (TPα; HEK.TPα cells, 1 μM U46619, Table 2, read-out: IC50 data for U46619-mediated [Ca2+]i mobilization, TPα) [µM] | TPα:TPβ Selectivity Ratio (TPα; IC50 TPα/IC50 TPβ) | activity class in HEK.TPβ cells (TPβ)
Cc1ccc(Nc2ccc([N+](=O)[O-])cc2S(=O)(=O)NC(=O)NC(C)(C)C)cc1 [BM573, reference compound] | 23.8 ± 0.68 | 9.9 ± 1.8 | 48.5 ± 1.77 | 12 ± 0.76 | – | – | – | –
CCCCCNC(=O)NS(=O)(=O)c1cc([N+](=O)[O-])ccc1Oc1cccc(-c2ccc(C)cc2)c1 [IX] | – | – | – | – | 1.54 | 11.6 | 7.5 | –
COc1ccc(-c2cccc(Oc3ccc(N)cc3S(=O)(=O)NC(=O)NC(C)(C)C)c2)cc1 [NTP1, 5-amino-N-(tert-butylcarbamoyl)-2-((4′-methoxy-[1,1′-biphenyl]-3-yl)oxy)benzene-sulfonamide] | 101 ± 4.75 | 102 ± 4.15 | 77.8 ± 8.71 | 50.2 ± 6.39 | – | – | – | –
COc1ccc(-c2cccc(Oc3ccc(C(=O)N(C)C)cc3S(=O)(=O)NC(=O)NC(C)(C)C)c2)cc1 [NTP2, 3-(N-(tert-butylcarbamoyl)sulfamoyl)-4-((4′-methoxy-[1,1′-biphenyl]-3-yl)oxy)-N,N-dimethylbenzamide] | 102 ± 3.59 | 90.1 ± 2.78 | 85 ± 2.71 | 54.9 ± 3.32 | – | – | – | –
COc1ccc(-c2cccc(Oc3ccc(C(F)(F)F)cc3S(=O)(=O)NC(=O)NC(C)(C)C)c2)cc1 [NTP3, N-(tert-butylcarbamoyl)-2-((4′-methoxy-[1,1′-biphenyl]-3-yl)oxy)-5-(trifluoromethyl)benzenesulfonamide] | 46 ± 5.92 | 14.8 ± 2.44 | 69.6 ± 5.35 | 41.6 ± 5.45 | – | – | – | ACTIVE
COc1ccc(-c2cccc(Oc3ccc(C(=O)O)cc3S(=O)(=O)NC(=O)NC(C)(C)C)c2)cc1 [NTP5, 3-(N-(tert-butylcarbamoyl)sulfamoyl)-4-((4′-methoxy-[1,1′-biphenyl]-3-yl)oxy)benzoic acid] | 88.3 ± 5.27 | 72 ± 3.87 | 98.7 ± 9.29 | 61.7 ± 1.42 | – | – | – | –
CCn1cc(-c2ccc(Oc3cccc(-c4ccc(OC)cc4)c3)c(S(=O)(=O)NC(=O)NC(C)(C)C)c2)cn1 [NTP6, N-(tert-butylcarbamoyl)-5-(1-ethyl-1H-pyrazol-4-yl)-2-((4′-methoxy-[1,1′-biphenyl]-3-yl)oxy)benzenesulfonamide] | 94.4 ± 7.7 | 57.4 ± 6.86 | 88.6 ± 14.5 | 45.1 ± 5.75 | – | – | – | –
COc1ccc(-c2cccc(Oc3ccc(Br)cc3S(=O)(=O)NC(=O)NC(C)(C)C)c2)cc1 [NTP7, 5-bromo-N-(tert-butylcarbamoyl)-2-((4′-methoxy-[1,1′-biphenyl]-3-yl)oxy)benzenesulfonamide] | 49 ± 4.41 | 12.2 ± 1.93 | 61.5 ± 7.7 | 32.5 ± 3.95 | – | – | – | ACTIVE
COc1ccc(-c2cccc(Oc3ccc(F)cc3S(=O)(=O)NC(=O)NC(C)(C)C)c2)cc1 [NTP8, N-(tert-butylcarbamoyl)-5-fluoro-2-((4′-methoxy-[1,1′-biphenyl]-3-yl)oxy)benzene-sulfonamide] | 59.4 ± 1.85 | 14.6 ± 2.72 | 68 ± 5.05 | 49.9 ± 6.91 | – | – | – | ACTIVE
COc1ccc(-c2cccc(Oc3ccc(C(C)=O)cc3S(=O)(=O)NC(=O)NC(C)(C)C)c2)cc1 [NTP9, 5-acetyl-N-(tert-butylcarbamoyl)-2-((4′-methoxy-[1,1′-biphenyl]-3-yl)oxy)benzenesulfonamide] | 46.3 ± 7.33 | 12.2 ± 1.03 | 85.9 ± 9.13 | 70.4 ± 2.47 | – | – | – | –
CNC(=O)c1ccc(Oc2cccc(-c3ccc(OC)cc3)c2)c(S(=O)(=O)NC(=O)NC(C)(C)C)c1 [NTP10] | 96 ± 0.94 | 54.7 ± 8.1 | 95.5 ± 4.25 | 69.8 ± 1.73 | – | – | – | –
COc1ccc(-c2cccc(Oc3ccc(C(=O)NCc4ccccn4)cc3S(=O)(=O)NC(=O)NC(C)(C)C)c2)cc1 [NTP11] | 49.8 ± 1.86 | 20.7 ± 2.81 | 73.1 ± 5.28 | 75.4 ± 5.83 | – | – | – | –

Other lines, results leading:

remaining activity at 1 µM (TPβ) [%] | remaining activity at 10 µM (TPβ) [%] | remaining activity at 1 µM (TPα; 1 μM U46619) [%] | remaining activity at 10 µM (TPα; 1 μM U46619) [%] | IC50 (TPβ; HEK.TPβ cells, Table 2, read-out: IC50 data for U46619-mediated [Ca2+]i mobilization, TPβ) [µM] | IC50 (TPα; HEK.TPα cells, 1 μM U46619, Table 2, read-out: IC50 data for U46619-mediated [Ca2+]i mobilization, TPα) [µM] | TPα:TPβ Selectivity Ratio (TPα; IC50 TPα/IC50 TPβ) | activity class in HEK.TPβ cells (TPβ) | SMILES
84.2 ± 7.51 | 34.4 ± 2.85 | 99.7 ± 2.13 | 77.9 ± 2.69 | – | – | – | – | COc1ccc(-c2cccc(Oc3ccc(C(=O)NC4COC4)cc3S(=O)(=O)NC(=O)NC(C)(C)C)c2)cc1 [NTP12]
74 ± 3.66 | 36.2 ± 0.52 | 93.8 ± 13.9 | 95.2 ± 9.57 | – | – | – | – | COc1ccc(-c2cccc(Oc3ccc(C(N)=O)cc3S(=O)(=O)NC(=O)NC(C)(C)C)c2)cc1 [NTP13]
86.4 ± 7.06 | 59.4 ± 7.67 | 83.5 ± 9.26 | 89.1 ± 9.1 | – | – | – | – | COCCNC(=O)c1ccc(Oc2cccc(-c3ccc(OC)cc3)c2)c(S(=O)(=O)NC(=O)NC(C)(C)C)c1 [NTP14]
87.6 ± 8.28 | 86.1 ± 5.64 | 79.8 ± 8.81 | 52.6 ± 8.42 | – | – | – | – | COc1ccc(-c2cccc(Oc3ccc(C(=O)NCCN(C)C)cc3S(=O)(=O)NC(=O)NC(C)(C)C)c2)cc1 [NTP15]
83 ± 7.62 | 34 ± 3.88 | 117 ± 10.2 | 96.3 ± 1.24 | – | – | – | – | COc1ccc(-c2cccc(Oc3ccc(C(=O)NCC4CC4)cc3S(=O)(=O)NC(=O)NC(C)(C)C)c2)cc1 [NTP16]
51.1 ± 1.13 | 13.3 ± 5.91 | 83.1 ± 4.85 | 59.5 ± 4.07 | – | – | – | – | COc1ccc(-c2cccc(Oc3ccc(C(=O)N4CCC4)cc3S(=O)(=O)NC(=O)NC(C)(C)C)c2)cc1 [NTP17]
45 ± 4.34 | 22.6 ± 2.28 | 93.4 ± 6.17 | 73.6 ± 2.98 | – | – | – | – | COc1ccc(-c2cccc(Oc3ccc(-c4cn[nH]c4)cc3S(=O)(=O)NC(=O)NC(C)(C)C)c2)cc1 [NTP18]
77.7 ± 3.24 | 64.5 ± 4.65 | 97.6 ± 8.6 | 99.4 ± 16 | – | – | – | – | COc1ccc(-c2cccc(Oc3ccc(-c4c(C)noc4C)cc3S(=O)(=O)NC(=O)NC(C)(C)C)c2)cc1 [NTP19]
